Results taken from publication PMC8327158, “PEGylated AdipoRon derivatives improve glucose and lipid metabolism under insulinopenic and high-fat diet conditions” (Journal of Lipid Research, 2021).
Values after ≈ are worked out from the molar mass of the structure shown.

Key:
[1] = Water solubility quantified by LC-MS/MS; type: physicochemical; settings: for solubility: water
Description: We quantified the solubilities of AdiponRons by LC-MS/MS. Briefly, water (HPLC grade) was added in 50–100 μl increments to a glass vial containing either AdipoRon (0.97 mg) or AdipoRonPEG5 (1.69 mg), vortexed until the compound started to dissolve (AdipoRon, […]; AdipoRonPEG5, […]). The suspension was then stirred overnight away from light. The solution was transferred to Teflon tubes and centrifuged at 15,000 rpm at room temperature for 10 min. We then collected the supernatant (aqueous saturated solution) for dilution and analysis.
For standards, 98 μl water was added to an Eppendorf tube and combined with 200 μl of methanol containing 0.15% formic acid and 75 ng/ml […] Standard (IS, n-benzeylbenzamide in MeOH. IS final conc. = 50 ng/ml). Samples were spiked with 2 μl of IS. The samples were vortexed 15 s, and spun 2 × 13,200 rpm in a standard microcentrifuge. The supernatant was then analyzed by LC-MS/MS on a QTrap 4000 system (AB Sciex) with the following settings: Ion Source/Gas Parameters: CUR = 25, CAD = medium, IS = 5,000, TEM = 500, GS1 = 70, GS2 = 70. Buffer A: Water + 0.1% formic acid + 2 mM NH4OAC; Buffer B: methanol + 0.1% formic acid + 2 mM NH4OAC; flow rate 1.5 ml/min; Agilent C18 XDB column, 5 micron packing 50 × 4.6 mm size. HPLC elution gradient: 0–0.5 min 97% A, 0.5–2.0 min gradient to 100% B, 2.0–3.5 min 100% B, 3.5–3.6 min gradient to 97% A, 3.6–4.1 97% A. Compound transition 429.156 to 174.1 for AdipoRon and 665.289 to 135.2 for AdipoRonPEG5.

wild-type mice = assay: Cold exposure (4°C): body temperature, scWAT histology, qPCR; type: in vivo, mouse
Description: In total, 5 mg/Kg of PBS and AdipoRonPEG5 were injected twice a day for 5 days at room temperature followed by housing in the cold chamber (4°C) for 7 days. Body temperature was measured at 0, 1, 2, 3, 4, and 5 h time point at the first day of cold exposure. In total, 5 mg/Kg of PBS and AdipoRonPEG5 were injected once a day for 7 days after cold exposure followed by harvesting tissues for qPCR analysis.

STZ-treated Adn−/− mice = assay: OGTT and triglyceride tolerance test in STZ-treated adiponectin knockout mice; type: in vivo, mouse
Description: For oral glucose tolerance test (OGTT), mice were fasted for 4–6 h and subjected to an oral gavage of dextrose (2 mg/g body weight). Tail blood was collected at 0, 15, 30, 60, and 120 min and prepared for serum and assayed for glucose and insulin. For insulin tolerance test (ITT), insulin (0.75 U/kg Humulin R; Eli Lilly, Indianapolis, IN) was administered under fed condition. Serum glucose level was measured at 0, 15, 30, 60, and 90 min time point. Triglyceride tolerance test (TGTT) was initiated by oral gavage of 20% Intralipid (10 μl/g BDW, l141-100 ml, Sigma), and serum was collected at 0, 1, 1.5, 3, and 6 h for triglyceride assay. Glucose, insulin, and triacylglyceride levels were measured using an oxidase-peroxidase assay (Sigma P7119), insulin ELISA (Crystal Chem, Elk Grove village, IL, #15596018), and Infinity Triglycerides Reagent (Thermo Fisher Scientific TR22421).
Streptozotocin (STZ; Sigma S1030) was dissolved by 0.05 M citrate buffer (final; 20 mg/ml). Following 6 h fasting, mice received a single intraperitoneal injection of streptozotocin (200 mg/kg) to induce insulinopenic conditions.

[2] = design: method as in https://www.caymanchem.com/pdfs/15941.pdf; settings: ref https://www.caymanchem.com/pdfs/15941.pdf; cited from earlier work

SMILES	times more soluble in water than the parent molecule ([1]; vs AdipoRon)	solubility ([1]; LC-MS/MS, mean ± SD) [µg/mL]	subcutaneous adipose tissue histology after cold exposure (wild-type mice; 5 mg/kg, 4°C)	body temperature after acute cold exposure (wild-type mice; 5 mg/kg, 5 days treatment, 4°C)	T-cadherin (CDH13) expression (wild-type mice; scWAT and BAT after cold exposure, qPCR)	blood TG levels in triglyceride tolerance test (STZ-treated Adn−/− mice)	glucose levels in OGTT (STZ-treated Adn−/− mice)	solubility in water ([1]; LC-MS/MS, mean ± SD) [µg/mL]	solubility in neutral phosphate buffer containing >30% DMSO [2] [µg/mL]
O=C(COc1ccc(C(=O)c2ccccc2)cc1)NC1CCN(Cc2ccc(OCCOCCOCCOCCOCCO)cc2)CC1 [AdipoRonPEG5]	about 100 times	910 ± 36 (≈ 1370 µM)	resembling beige adipocytes	significantly higher body temperature	upregulated expression	not altered	improved the glucose levels		
O=C(COc1ccc(C(=O)c2ccccc2)cc1)NC1CCN(Cc2ccccc2)CC1 [AdipoRon]		8.99 ± 0.15 (≈ 21 µM)						9 (≈ 21 µM)	250 (≈ 583 µM)
